Patent US11555014B2, “High penetration prodrug compositions of prostaglandins and related compounds” (Techfields Pharma Co., Ltd., priority 2006, dated 2023)

Legend:
[1] = pH 7.4
Protocol: The penetration rates of HPPs and their parent drugs through human skin were measured in vitro by modified Franz cells. The Franz cells have two chambers, the top sample chamber and the bottom receiving chamber. The human skin tissue (360-400 μm thick) that separates the top and the receiving chambers was isolated from the anterior or posterior thigh areas.
The compound tested (2 mL, 20% in 0.2 M phosphate buffer, pH. 7.4) were added to the sample chamber of a Franz cell. The receiving chamber contains 10 ml of 2% bovine serum albumin in saline which was stirred at 600 rpm. The cumulative amounts of the tested compounds penetrating the skin versus time were determined by high-performance liquid chromatography (HPLC) method.

Solubility in water = format: physicochemical
Protocol: 37.7 g (0.1 mol) of sodium 11,15-dihydroxy-9-oxoprost-13-en-1-oate was dissolved in 100 ml of acetonitrile. 26.1 g (0.1 mol) of 2-Bromo-N,N-diethylethylamine.HBr and 8.6 g of sodium bicarbonate were added into the reaction mixture. The mixture was stirred for overnight at RT. The solvents were evaporated off. 250 ml of ethyl acetate was added into the reaction mixture and the mixture was washed with water (3×100 ml). The organic solution was dried over anhydrous sodium sulfate. Sodium sulfate was removed by filtration. 6 g of acetic acid was added into the reaction mixture with stirring. Hexane (200 ml) was added. The solid product was collected by filtration. After drying, it yielded 42 g of the desired product (81.8%). Hygroscopic product; Solubility in water: 100 mg/ml; Elementary analysis: C28H51NO7; MW: 513.37. Calculated % C, 65.47; H, 10.01; N, 2.73; O, 21.80. Found % C, 65.42; H, 10.03; N, 2.70; O, 21.85.
43.7 g (0.1 mol) of 11,15-diacetoxy-9-oxoprosta-5,13-dien-1-oic acid was dissolved in 300 ml of chloroform. 20.6 g of N,N′-Dicyclohexylcarbodiimide was added into the reaction mixture. 11.7 g of N,N-diethylaminoethylamine was added into the reaction mixture. The mixture was stirred for 3 hours at RT. The solid was removed by filtration. The chloroform solution was washed with 5% NaHCO3 (2×100 ml) and water (3×100 ml). The organic solution was dried over anhydrous sodium sulfate. Sodium sulfate was removed by filtration. 6 g of acetic acid was added into the reaction mixture with stirring. Hexane (200 ml) was added. The solid product was collected by filtration. After drying, it yielded 45 g of the desired product (85.8%). Hygroscopic product; Solubility in water: 100 mg/ml; Elementary analysis: C34H59NO9S; MW: 657.90. Calculated % C, 62.07; H, 9.04; N, 2.13; O, 21.89; S, 4.87. Found % C, 62.02; H, 9.06; N, 2.11; O, 21.95; S, 4.86.
49.9 g (0.1 mol) of 9,11,15-triacetoxyprost-13-en-1-oic acid was dissolved in 300 ml of chloroform. 20.6 g of N,N′-Dicyclohexylcarbodiimide was added into the reaction mixture. 13.1 g of dimethylaminoethyl mercaptan was added into the reaction mixture. The mixture was stirred for 3 hours at RT. The solid was removed by filtration. The chloroform solution was washed with 5% NaHCO3 (2×100 ml) and water (3×100 ml). The organic solution was dried over anhydrous sodium sulfate. Sodium sulfate was removed by filtration. 6 g of acetic acid was added into the reaction mixture with stirring. Hexane (200 ml) was added. The solid product was collected by filtration. After drying, it yielded 45 g of the desired product (85.8%). Hygroscopic product; Solubility in water: 100 mg/ml; Elementary analysis: C32H53NO9; MW: […] Calculated % C, 64.51; H, 8.97; N, 2.35; O, 24.17. Found % C, 64.47; H, 8.99; N, 2.34; O, 24.20.
37.7 g (0.1 mol) of sodium 9,11,15-trihydroxyprosta-5,13-dien-1-oate was dissolved in 100 ml of acetonitrile. 39 g (0.15 mol) of 2-Bromo-N,N-diethylethylamine.HBr in ethyl acetate was added into the reaction mixture. The mixture was stirred for 3 h at RT. Then 8 g of sodium bicarbonate was added into the reaction mixture. The mixture is stirred for another 2 h at RT. The solvents were evaporated off. 250 ml of ethyl acetate was added into the reaction mixture and the mixture was washed with water (3×100 ml). The organic solution was dried over anhydrous sodium sulfate. Sodium sulfate was removed by filtration. 6 g of acetic acid was added into the reaction mixture with stirring. […] Calculated % C, 65.47; H, 10.01; N, 2.73; O, 21.80. […]

With `CC(=O)O.CCCCCC(C)(O)C=C[C@H]1C(O)CC(O)[C@@H]1CC=CCCCC(=O)OCCN(CC)CC` (some centres unmarked) [N,N-diethylaminoethyl 9,11,15-trihydroxy-15-methylprosta-5,13-dien-1-oate.AcOH] the “In vitro penetration rate (apparent flux), prodrug compounds” value [1] was 0.80 mg/cm^2/h and the Solubility in water (Solubility in water) was 100 mg/mL.
